The values below come from publication PMC7794549, “A capsaicinoid-based soft drug, AG1529, for attenuating TRPV1-mediated histaminergic and inflammatory sensory neuron excitability” (Scientific Reports, 2021).

Type in all cases: cell-based
Experiment [1] addresses T1, hTRPM8 (Homo sapiens, UniProt Q7Z2W7).
T1 construct: gene TRPM8
In words: whole-cell patch-clamp, menthol-evoked currents in HEK293 cells; % block at […]. (The patch-clamp technique gives a direct electrical read-out from membranes.)

The target of experiment [2] is T2, hTRPA1 (Homo sapiens, UniProt O75762).
T2 construct: gene TRPA1
T2 sequence (O75762 whole entry): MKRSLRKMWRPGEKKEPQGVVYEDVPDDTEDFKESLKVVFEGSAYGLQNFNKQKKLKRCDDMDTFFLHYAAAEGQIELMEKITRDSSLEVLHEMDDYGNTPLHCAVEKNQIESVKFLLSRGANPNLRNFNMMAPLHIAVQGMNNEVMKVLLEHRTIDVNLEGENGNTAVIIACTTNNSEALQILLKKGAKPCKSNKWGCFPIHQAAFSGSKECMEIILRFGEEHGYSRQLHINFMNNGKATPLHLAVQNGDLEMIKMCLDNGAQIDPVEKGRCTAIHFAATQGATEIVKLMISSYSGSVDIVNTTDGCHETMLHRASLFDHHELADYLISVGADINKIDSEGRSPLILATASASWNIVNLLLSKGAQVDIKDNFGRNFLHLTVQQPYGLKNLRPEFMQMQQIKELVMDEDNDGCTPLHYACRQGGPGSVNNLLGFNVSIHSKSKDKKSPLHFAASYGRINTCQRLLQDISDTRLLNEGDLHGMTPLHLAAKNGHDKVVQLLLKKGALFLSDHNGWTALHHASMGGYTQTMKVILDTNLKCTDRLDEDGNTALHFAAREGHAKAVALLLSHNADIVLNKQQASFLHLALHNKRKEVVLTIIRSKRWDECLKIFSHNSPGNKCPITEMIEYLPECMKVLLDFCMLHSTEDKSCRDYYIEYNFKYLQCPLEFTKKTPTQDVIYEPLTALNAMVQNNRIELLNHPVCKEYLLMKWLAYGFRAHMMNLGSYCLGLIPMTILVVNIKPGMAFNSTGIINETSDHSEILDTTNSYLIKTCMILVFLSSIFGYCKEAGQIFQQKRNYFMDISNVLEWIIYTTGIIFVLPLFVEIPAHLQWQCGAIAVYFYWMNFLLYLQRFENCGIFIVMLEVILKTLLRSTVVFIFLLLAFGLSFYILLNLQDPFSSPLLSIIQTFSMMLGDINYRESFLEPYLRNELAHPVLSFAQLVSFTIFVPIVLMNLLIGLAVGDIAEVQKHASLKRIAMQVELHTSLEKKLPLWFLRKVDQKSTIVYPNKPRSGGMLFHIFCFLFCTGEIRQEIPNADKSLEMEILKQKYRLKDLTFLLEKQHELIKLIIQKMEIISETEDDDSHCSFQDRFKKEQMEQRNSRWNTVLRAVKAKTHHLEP
In words: whole-cell patch-clamp, AITC-evoked currents in HEK293 cells; % inhibition at […].

Experiment [3] deals with T3, rTRPV1 (Rattus norvegicus, UniProt O35433).
T3 construct: gene Trpv1
T3 sequence (O35433 whole entry): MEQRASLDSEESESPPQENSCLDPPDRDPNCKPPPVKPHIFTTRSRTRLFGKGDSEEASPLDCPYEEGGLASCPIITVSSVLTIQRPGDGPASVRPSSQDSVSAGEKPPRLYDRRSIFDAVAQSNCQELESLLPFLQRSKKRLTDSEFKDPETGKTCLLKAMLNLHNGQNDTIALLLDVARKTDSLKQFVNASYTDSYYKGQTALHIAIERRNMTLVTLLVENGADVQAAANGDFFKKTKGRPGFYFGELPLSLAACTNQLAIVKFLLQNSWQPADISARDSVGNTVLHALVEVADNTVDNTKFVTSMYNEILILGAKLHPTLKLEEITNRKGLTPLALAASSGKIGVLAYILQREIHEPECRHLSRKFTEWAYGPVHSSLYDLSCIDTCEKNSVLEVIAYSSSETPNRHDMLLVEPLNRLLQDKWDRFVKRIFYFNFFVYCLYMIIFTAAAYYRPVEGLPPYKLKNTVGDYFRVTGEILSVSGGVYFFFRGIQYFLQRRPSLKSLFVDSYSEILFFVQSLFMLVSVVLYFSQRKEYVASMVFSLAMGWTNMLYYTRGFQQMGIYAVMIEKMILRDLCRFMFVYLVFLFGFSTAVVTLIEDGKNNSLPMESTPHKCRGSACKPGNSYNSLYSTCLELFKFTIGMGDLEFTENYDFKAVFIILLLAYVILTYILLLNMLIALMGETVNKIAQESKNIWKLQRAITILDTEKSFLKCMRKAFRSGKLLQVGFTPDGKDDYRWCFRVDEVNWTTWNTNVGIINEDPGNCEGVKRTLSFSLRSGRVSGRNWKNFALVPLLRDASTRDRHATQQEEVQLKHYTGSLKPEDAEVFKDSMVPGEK
In words: Ca2+ microfluorography.

Experiment [4] concerns the target T4, hTRPV1 (Homo sapiens, UniProt Q8NER1).
T4 construct: gene TRPV1
In words: whole-cell patch-clamp, capsaicin-evoked currents in HEK293 cells expressing hTRPV1.

The target of experiment [5] is T2, hTRPA1. The experiment can be described thus: whole-cell patch-clamp, AITC-evoked currents in HEK293 cells, […].

T4 sequence (Q8NER1 whole entry): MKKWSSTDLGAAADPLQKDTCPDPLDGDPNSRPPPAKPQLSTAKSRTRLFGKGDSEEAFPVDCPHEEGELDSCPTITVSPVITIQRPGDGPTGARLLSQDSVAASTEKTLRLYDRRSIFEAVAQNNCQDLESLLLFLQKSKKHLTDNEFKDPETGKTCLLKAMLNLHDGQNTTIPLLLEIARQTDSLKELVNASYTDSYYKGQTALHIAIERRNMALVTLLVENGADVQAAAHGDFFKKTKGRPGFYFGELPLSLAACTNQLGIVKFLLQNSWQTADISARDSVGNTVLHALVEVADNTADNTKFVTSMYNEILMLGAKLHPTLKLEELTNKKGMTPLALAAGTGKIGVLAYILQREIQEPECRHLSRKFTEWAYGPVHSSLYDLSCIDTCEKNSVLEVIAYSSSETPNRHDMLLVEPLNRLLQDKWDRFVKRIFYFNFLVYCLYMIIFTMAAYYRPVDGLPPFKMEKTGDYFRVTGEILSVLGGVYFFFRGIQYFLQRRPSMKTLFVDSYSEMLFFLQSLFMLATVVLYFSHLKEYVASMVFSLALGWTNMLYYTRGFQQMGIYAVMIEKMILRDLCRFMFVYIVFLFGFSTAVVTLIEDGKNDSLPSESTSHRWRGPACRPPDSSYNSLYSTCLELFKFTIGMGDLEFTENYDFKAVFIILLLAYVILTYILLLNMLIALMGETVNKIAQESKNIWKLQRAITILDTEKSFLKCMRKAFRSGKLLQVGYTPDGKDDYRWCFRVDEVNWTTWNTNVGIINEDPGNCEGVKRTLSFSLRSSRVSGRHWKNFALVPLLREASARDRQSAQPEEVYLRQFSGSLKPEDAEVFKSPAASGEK
T1 sequence (Q7Z2W7 whole entry): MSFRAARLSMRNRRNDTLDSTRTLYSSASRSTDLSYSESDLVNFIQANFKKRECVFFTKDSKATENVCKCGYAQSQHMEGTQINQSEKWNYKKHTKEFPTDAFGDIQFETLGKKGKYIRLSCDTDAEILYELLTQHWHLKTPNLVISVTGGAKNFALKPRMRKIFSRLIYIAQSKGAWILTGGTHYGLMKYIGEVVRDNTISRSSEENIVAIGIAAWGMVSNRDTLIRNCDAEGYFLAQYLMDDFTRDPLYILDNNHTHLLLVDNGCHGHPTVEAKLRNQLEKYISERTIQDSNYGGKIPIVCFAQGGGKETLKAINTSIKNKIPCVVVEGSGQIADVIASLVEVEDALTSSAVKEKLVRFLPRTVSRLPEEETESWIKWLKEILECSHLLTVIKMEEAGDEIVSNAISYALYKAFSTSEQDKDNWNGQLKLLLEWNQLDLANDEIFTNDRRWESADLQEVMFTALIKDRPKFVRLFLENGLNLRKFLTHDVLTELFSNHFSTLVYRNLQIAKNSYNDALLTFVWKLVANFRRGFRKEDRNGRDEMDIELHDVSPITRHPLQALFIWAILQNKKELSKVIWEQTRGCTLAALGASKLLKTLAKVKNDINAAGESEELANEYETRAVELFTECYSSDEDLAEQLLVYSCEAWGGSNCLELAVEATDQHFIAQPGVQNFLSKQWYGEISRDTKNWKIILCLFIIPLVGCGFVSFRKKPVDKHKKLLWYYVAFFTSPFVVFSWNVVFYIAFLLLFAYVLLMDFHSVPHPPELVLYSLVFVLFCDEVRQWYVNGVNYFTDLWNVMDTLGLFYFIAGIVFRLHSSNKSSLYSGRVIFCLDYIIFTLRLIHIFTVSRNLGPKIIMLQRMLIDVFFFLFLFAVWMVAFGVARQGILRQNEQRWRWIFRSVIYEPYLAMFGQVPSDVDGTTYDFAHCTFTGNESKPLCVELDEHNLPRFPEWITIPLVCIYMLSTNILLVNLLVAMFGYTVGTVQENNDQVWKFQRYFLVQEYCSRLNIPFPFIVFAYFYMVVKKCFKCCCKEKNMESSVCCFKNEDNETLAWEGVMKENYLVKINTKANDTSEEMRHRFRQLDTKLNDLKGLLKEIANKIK

For `CCCCCCCCCCCC(=O)OCC(=O)NCc1cc(OC)c(O)cc1I` [AG1529, 2-((4-hydroxy-2-iodo-5-methoxybenzyl)amino)-2-oxoethyl dodecanoate], the “%” value in experiment [1] is listed as ~ 40%. In experiment [2], this molecule came in with an inhibition at 10 µM of around 40%. The figures for the IC50 in experiment [3] and in experiment [4] were 900 ± 200 nM and 900 ± 500 nM, respectively.
In the case of `CC(C)c1ccc(NC(=O)Cn2cnc3c2c(=O)n(C)c(=O)n3C)cc1` [HC030031, 1,2,3,6-Tetrahydro-1,3-dimethyl-N-[4-(1-methylethyl)phenyl]-2,6-dioxo-7H-purine-7-acetamide], the “whole-cell patch-clamp, AITC-evoked currents in HEK293 cells, 5 μM” value in experiment [5] is given as “a reference TRPA1 antagonist, completely abrogated AITC-evoked ionic currents”.

In general, inhibition refers to the percentage by which the read-out fell short of the control. A higher inhibition goes with a strong effect. By IC50 is commonly meant the midpoint of a concentration-inhibition curve. Low values mean greater potency in that assay, high ones weaker potency in that assay.
